# Test results reported in US5686448A (priority 1995, dated 1997).
# Values joined by “and” are separate entries in the source; they are usually repeats but may differ in a detail not shown here. Equal values may be shown once. Read-outs that look alike come from different tables or passages of the source.
# Columns and labels:
# HSV-1 (F strain) = system: HSV-1 (F strain)
# Experimental: (§1) In Series No. 1 of Example No. 1, monolayer cultures of Vero, RK-13 (rabbit kidney), and WISH (human amnion, Hayflick) cells were used in the experiments of Example No. 1. The cells were grown in Basal Minimal Eagle's Media supplemented with 5% fetal calf serum, 1% glutamine, sodium bicarbonate and antibiotics. Cultures were maintained in a maintenance media that was the same media, except that the maintenance media contained 2% fetal calf serum. An F Strain of HSV-1 was chosen because it is a well-known prototype of HSV-1. This F Strain can be obtained from the American Type Culture Collection (ATCC), 12301 Parklawn Drive, Rockville, Md. 20852, at which it is identified as ATC-VR 733. For studies with HSV-2, a G strain of HSV-2 (ATCC-VR 734) and a 333 strain of HSV-2 were selected. These strains also can be obtained from the ATCC.
# Two methods were used to test the drug's effectiveness in the suppression of viral growth. In the pre-inoculation experiments, the drug was added after adsorption of the virus. In the pre-incubation experiments, the drug was added prior to infection of the cell cultures.
# (§2) Accordingly, the pre-inoculation experiments measured the effect of the drug on a cell that was already infected with the virus. The pre-incubation experiments measured the cell cultures that were treated with the drug prior to the inoculation to determine if these cells then would be permissive or non-permissive to the tested virus. In these experiments, plaque reduction assays provided a quantitative measure of antiviral activity and was deemed to be reliable and objective.
# (§3) In the pre-incubation experiments, the media was either decanted or gently aspirated from the cultures. After decanting or aspirating, 1 ml of the drug dilution plus maintenance media was added to the cultures. The cultures that served as virus controls or cell controls received 2 ml of maintenance media. After the pre-treatment period, the media was again aspirated and the cell cultures were infected with the virus.
# (§4) When this occurred, the cultures were fixed and stained with crystal violet. The plaque were then carefully counted under the microscope. By such a counting and careful comparison, percentages of plaque inhibition in the treated cultures were then calculated.
# These duplicate wells were incubated for 3 hours. After this time, the maintenance media was aspirated and the cultures were infected. Fresh maintenance media was then added.
# HSV-2 (333 strain) = details: for % plaque inhibition: 2 hours pre-incubation
# Experimental: as §1, §2, §3, §4
# The 333 strain, which can be obtained from ATCC, was used.
# RK-13 cells = details: 25 mg/ml, 48 hours
# HSV-1 (McKrae strain) = details: 20 mg/ml
# [1] = system: HSV types 1 and 2 (herpes simplex)
# [2] = Exp. 1E, 4 hours pre-incubation, 100 mg/culture
# [3] = Exp. 1E, 7 hours pre-incubation, 100 mg/culture
# [4] = Patient J, following day, 1% TEAC ointment topical
# [5] = Patient J, two days after infusion 3.6 cc
# [6] = Patient K, after second infusion
# [7] = Patient B, fourth treatment 4.8 cc
# [8] = Patient B, third treatment 4.5 cc
# [9] = Patient I, three months after second infusion
# 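For duration of spots in this document: individual clinical case observations in adult human patients with a history of recurrent HSV type 2 lesions, outcomes described qualitatively as reported symptoms and lesion episodes.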
# 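For duration of vesicles in this document: individual clinical case observations in adult human patients with a history of recurrent HSV type 2 lesions, outcomes described qualitatively as reported symptoms and lesion episodes.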
# 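For recurrence of lesions or pain in this document: individual clinical case observations in adult human patients with a history of recurrent HSV type 2 lesions, outcomes described qualitatively as reported symptoms and lesion episodes.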
# 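For tiny areas under the skin in this document: individual clinical case observations in adult human patients with a history of recurrent HSV type 2 lesions, outcomes described qualitatively as reported symptoms and lesion episodes.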
smiles,measurement,setting,value
"CC[N+](CC)(CC)CC.[Cl-] [TEAC, tetraethylammonium chloride]",% plaque inhibition,"HSV-1 (F strain); Exp. 1D, 3 hours before infection, 12.5 mg/culture",80%
same,% plaque inhibition,"HSV-1 (F strain); Exp. 1D, 3 hours before infection, 25.0 mg/culture",79%
same,% plaque inhibition,"HSV-1 (F strain); Exp. 1D, 3 hours before infection, 50.0 mg/culture",82%
same,% plaque inhibition,"HSV-1 (F strain); Exp. 1D, 3 hours before infection, 100.0 mg/culture",79%
same,% plaque inhibition,"HSV-1 (F strain); Exp. 1E, 2 hours pre-incubation, 12.5 mg/culture",18%
same,% plaque inhibition,"HSV-1 (F strain); Exp. 1E, 2 hours pre-incubation, 25 mg/culture",17%
same,% plaque inhibition,"HSV-1 (F strain); Exp. 1E, 2 hours pre-incubation, 50 mg/culture",24%
same,% plaque inhibition,"HSV-1 (F strain); Exp. 1E, 2 hours pre-incubation, 100 mg/culture",68%
same,% plaque inhibition,"HSV-1 (F strain); Exp. 1E, 4 hours pre-incubation, 12.5 mg/culture",less than 20%
same,% plaque inhibition,"HSV-1 (F strain); Exp. 1E, 4 hours pre-incubation, 50 mg/culture",63%
same,% plaque inhibition,HSV-1 (F strain); [2],100%
same,cell layer appearance (thin),HSV-1 (F strain); [2],thin
same,% plaque inhibition,"HSV-1 (F strain); Exp. 1E, 7 hours pre-incubation, 12.5 mg/culture",76%
same,% plaque inhibition,HSV-1 (F strain); [3],100%
same,cell layer appearance (thin),HSV-1 (F strain); [3],thin
same,permissiveness of cells to virus,"HSV-1 (F strain); added before viral inoculation, summary",rendered the cells non-permissive to the virus and no plaque formed
same,sensitivity to TEAC vs HSV-1,HSV-2 (333 strain); 333 strain,even more sensitive to TEAC than HSV-1
same,% plaque inhibition,HSV-2 (333 strain); 12.5 mg/culture,25%
same,% plaque inhibition,HSV-2 (333 strain); 25 mg/culture,42%
same,% plaque inhibition,HSV-2 (333 strain); 50 mg/culture,56%
same,inhibition of in vitro replication,"HSV-2 (333 strain); HSV-2, summary",inhibited the in vitro replication of HSV-1 and HSV-2
same,change in morphology of cells,"WISH cells; 5, 2.5, 1.25 mg/culture overnight",No change in the morphology of the cells
same,growth or general appearance vs untreated,"WISH cells; 5, 2.5, 1.25 mg/culture, additional 24 hours in fresh medium",no apparent difference in the growth or general appearance
same,toxicity,RK-13 cells,toxicity
same,virus yield,"HSV-1 (McKrae strain); cell, 6 hours P.I., 10^-1",2 PFU/ml
same,virus yield,"HSV-1 (McKrae strain); cell, 6 hours P.I., 10^-2",5 PFU/ml
same,virus yield,"HSV-1 (McKrae strain); cell, 6 hours P.I., Und.",12 PFU/ml
same,virus yield,"HSV-1 (McKrae strain); cell, 10 hours P.I., 10^-1",3 PFU/ml
same,virus yield,"HSV-1 (McKrae strain); cell, 10 hours P.I., 10^-2",0 PFU/ml
same,virus yield,"HSV-1 (McKrae strain); cell, 10 hours P.I., Und.",13 PFU/ml
same,virus yield,"HSV-1 (McKrae strain); cell, 20 hours P.I., 10^-1",5 PFU/ml
same,virus yield,"HSV-1 (McKrae strain); cell, 20 hours P.I., 10^-2",0 PFU/ml
same,virus yield,"HSV-1 (McKrae strain); cell, 20 hours P.I., Und.",42 PFU/ml
same,virus yield,"HSV-1 (McKrae strain); cell, 24 hours P.I., 10^-1",32 PFU/ml
same,virus yield,"HSV-1 (McKrae strain); cell, 24 hours P.I., 10^-2",10 PFU/ml
same,virus yield,"HSV-1 (McKrae strain); cell, 24 hours P.I., Und.",58 PFU/ml
same,virus yield,"HSV-1 (McKrae strain); cell, 28 hours P.I., 10^-1",TMTC
same,virus yield,"HSV-1 (McKrae strain); cell, 28 hours P.I., 10^-2",15 PFU/ml
same,virus yield,"HSV-1 (McKrae strain); cell, 28 hours P.I., Und.",W.O.
same,virus yield,"HSV-1 (McKrae strain); supernatant, 6 hours P.I., 10^-1",0 PFU/ml
same,virus yield,"HSV-1 (McKrae strain); supernatant, 6 hours P.I., 10^-2",0 PFU/ml
same,virus yield,"HSV-1 (McKrae strain); supernatant, 6 hours P.I., 10^-3",0 PFU/ml
same,virus yield,"HSV-1 (McKrae strain); supernatant, 10 hours P.I., 10^-1",0 PFU/ml
same,virus yield,"HSV-1 (McKrae strain); supernatant, 10 hours P.I., 10^-2",0 PFU/ml
same,virus yield,"HSV-1 (McKrae strain); supernatant, 10 hours P.I., 10^-3",0 PFU/ml
same,virus yield,"HSV-1 (McKrae strain); supernatant, 20 hours P.I., 10^-1",0 PFU/ml
same,virus yield,"HSV-1 (McKrae strain); supernatant, 20 hours P.I., 10^-2",0 PFU/ml
same,virus yield,"HSV-1 (McKrae strain); supernatant, 20 hours P.I., 10^-3",0 PFU/ml
same,virus yield,"HSV-1 (McKrae strain); supernatant, 24 hours P.I., 10^-1",0 PFU/ml
same,virus yield,"HSV-1 (McKrae strain); supernatant, 24 hours P.I., 10^-2",0 PFU/ml
same,virus yield,"HSV-1 (McKrae strain); supernatant, 24 hours P.I., 10^-3",0 PFU/ml
same,virus yield,"HSV-1 (McKrae strain); supernatant, 28 hours P.I., 10^-1",0 PFU/ml
same,virus yield,"HSV-1 (McKrae strain); supernatant, 28 hours P.I., 10^-2",0 PFU/ml
same,virus yield,"HSV-1 (McKrae strain); supernatant, 28 hours P.I., 10^-3",0 PFU/ml
same,cell layer appearance,vaccinia,thin
same,plaque formation,vaccinia,did not have any plaque
same,tiny areas under the skin,"HSV type 2; Patient A, about two weeks after third infusion 3.4 cc",disappeared in about a day
same,duration of vesicles,"HSV type 2; Patient A, after first infusion",disappeared in two to three days without pain
same,duration of spots,"HSV type 2; Patient A, after third infusion",24 h
same,recurrence of lesions or pain,"HSV type 2; Patient A, eighteen months after initial exam",no further lesions or pain
same,sciatic pain,"HSV type 2; Patient A, first infusion 2.8 cc of 100 mg/cc",cessation of sciatic pain
same,sciatic nerve pain,"HSV type 2; Patient A, second infusion 3.2 cc",the sciatic nerve pain disappeared during the infusion
same,itching and tingling,HSV type 2; Patient D,itching and tingling disappeared
same,lesions,"HSV type 2; Patient D, two days later",all lesions were improving
same,lesions,"HSV type 2; Patient E, 5 days after third infusion 5 cc",all lesions had cleared up
same,prodome and lesions,"HSV type 2; Patient E, after first infusion",massive prodome with large weeping lesions
same,pinpoint lesions breaking out,"HSV type 2; Patient E, after third infusion",5-6 pinpoint lesions
same,prodome and lesions,"HSV type 2; Patient E, next day after second infusion",no prodome and no lesions
same,breakout,"HSV type 2; Patient E, second day after second infusion",another breakout was occurring
same,lesions,"HSV type 2; Patient E, two days after first infusion",the lesions had started to crust
same,general condition,"HSV type 2; Patient F, about 3 weeks later",completely cleared up
same,lesion,"HSV type 2; Patient F, next day, 3.8 cc",improved
same,new lesions,"HSV type 2; Patient F, nine days after second infusion",on the other side lesions had developed
same,duration of subsequent lesions,"HSV type 2; Patient F, subsequent follow up",12 days and 7 days
same,crusting of lesions,"HSV type 2; Patient G, 4.3 cc",never crusted
same,psoriasis,"HSV type 2; Patient G, 4.3 cc",psoriasis improved
same,time to disappearance of lesions,"HSV type 2; Patient G, 4.3 cc",≤ 48 h
same,lesions,"HSV type 2; Patient G, next day, 4.3 cc",the lesions improving
same,setback,"HSV type 2; Patient H, 6 days later",setback 6 days later when the condition became a visual attack
same,improvement,"HSV type 2; Patient H, following day, 4.6 cc (6.0 mg/kg)",striking improvement
same,further problems,"HSV type 2; Patient H, six months after treatment, besides 2 minor incidents of red spots and some aura",no further problems
same,incidents since treatment,"HSV type 2; Patient J, 12 months later, ointment applied",very few incidents since treatment
same,new vesicles,HSV type 2; [4],2 vesicles
same,tingling and redness,HSV type 2; [4],the tingling and redness had gone
same,duration of lesion,"HSV type 2; Patient J, later attack, 1% TEAC ointment topical",3 days
same,lesions,"HSV type 2; Patient J, three days later, 1% TEAC ointment topical",all the lesions had dried up
same,lesions,HSV type 2; [5],the lesions were drying
same,pain,HSV type 2; [5],the pain had disappeared
same,duration of attacks,HSV type 2; [6],2 to 3 days
same,severity of attacks,HSV type 2; [6],milder severity
same,expected attack,"HSV type 2; Patient K, six weeks after second infusion 3.4 cc",the attack had not occurred
same,oral lesion resolution,"[1]; Patient B, 3 days after first infusion",resolution occurring in a shorter than usual time
same,severity of attack,"[1]; Patient B, about a month after second treatment",the attack was never serious and that no lesion appeared
same,attacks,"[1]; Patient B, about a month later",no more attacks
same,aura and lesion,"[1]; Patient B, day after second 3.7 cc",absence of an aura and no occurrence of the expected lesion except for a very small lesion
same,duration of penile lesions,[1]; [7],8 days
same,value of treatment,[1]; [7],the last treatment appeared of no value
same,recurrences,[1]; [8],recurrences were not eliminated
same,time to disappearance of penile lesion,[1]; [8],2 to 3 days
same,fever blisters,[1]; Patient C,cleared right away
same,labial lesions,[1]; Patient C,two attacks of labial lesions cleared rapidly
same,forehead lesion,"[1]; Patient C, about a month later",crusted relatively quickly
same,further problems,"[1]; Patient C, five and ten months after initial treatment",no further problems
same,lesions,"[1]; Patient C, next day, 3.85 cc (5 mg/kg)",markedly improved
same,infection,"[1]; Patient I, first infusion 4.7 cc",all clear
same,further lesions,[1]; [9],no further lesions until one developed in the preceding week
same,nocturnal headaches,[1]; [9],no further nocturnal headaches
